From PubChem BioAssay AID2060885 (Molecular Pharmacology Branch, DTP, NCI, 2025)
pIC50: −log10 of the molar value.

System: NCI-H23 complex spheroids with HUVEC/MSC, viability
Assay: Anticancer human tumor NCI-H23 cell line growth inhibition [RAS];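 note: spheroids exposed to compound for 7 days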;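 for viability, T/C: 100% = DMSO vehicle control viability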
Conditions: for viability, T/C: stronger effect = lower value
Outline: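 Multi-cell-type spheroids: tumor cells plus HUVEC endothelial cells and mesenchymal stem cells. RAS-pathway inhibitors were combined with targeted agents, each dosed in half-log steps down from clinical Cmax, or from 10 microM when Cmax was unknown.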

[1] = curve of first compound, second compound 0.00316 µM
[2] = curve of first compound, second compound 0.01 µM
[3] = curve of first compound, second compound 0.0316 µM
[4] = curve of first compound, second compound 0.1 µM
[5] = curve of first compound, second compound 0.316 µM
[6] = curve of first compound, second compound 1 µM
[7] = second compound 0.00316 µM, first compound 0.0316 µM
[8] = second compound 0.00316 µM, first compound 0.1 µM
[9] = second compound 0.00316 µM, first compound 0.316 µM
[10] = second compound 0.00316 µM, first compound 1 µM
[11] = second compound 0.01 µM, first compound 0.0316 µM
[12] = second compound 0.01 µM, first compound 0.1 µM
[13] = second compound 0.01 µM, first compound 0.316 µM
[14] = second compound 0.01 µM, first compound 1 µM
[15] = second compound 0.0316 µM, first compound 0.0316 µM
[16] = second compound 0.0316 µM, first compound 0.1 µM
[17] = second compound 0.0316 µM, first compound 0.316 µM
[18] = second compound 0.0316 µM, first compound 1 µM
[19] = second compound 0.1 µM, first compound 0.0316 µM
[20] = second compound 0.1 µM, first compound 0.1 µM
[21] = second compound 0.1 µM, first compound 0.316 µM
[22] = second compound 0.1 µM, first compound 1 µM
[23] = second compound 0.316 µM, first compound 0.0316 µM
[24] = second compound 0.316 µM, first compound 0.1 µM
[25] = second compound 0.316 µM, first compound 0.316 µM
[26] = second compound 0.316 µM, first compound 1 µM
[27] = second compound 1 µM, first compound 0.0316 µM
[28] = second compound 1 µM, first compound 0.1 µM
[29] = second compound 1 µM, first compound 0.316 µM
[30] = second compound 1 µM, first compound 1 µM

Compound: Nc1ccn(C2OC(CO)C(O)C2(F)F)c(=O)n1 (stereo unspecified) + C=CC(=O)N1CCN(c2nc(OCC3CCCN3C)nc3c(F)c(-c4nc(N)cc(C)c4C(F)(F)F)c(Cl)cc23)C(C)C1
- pIC50 [1]: > 8.50
- pIC50 [2]: > 8.50
- pIC50 [3]: > 8.50
- pIC50 [4]: > 8.50
- pIC50 [5]: > 8.50
- pIC50 [6]: > 8.50
- viability, T/C (second compound 0.00316 µM, first compound 0.00316 µM): 29.9%
- viability, T/C (second compound 0.00316 µM, first compound 0.01 µM): 4.17%
- viability, T/C [7]: 1.98%
- viability, T/C [8]: 2.04%
- viability, T/C [9]: 2.83%
- viability, T/C [10]: 2.41%
- viability, T/C (second compound 0.01 µM, first compound 0.00316 µM): 34.3%
- viability, T/C (second compound 0.01 µM, first compound 0.01 µM): 3.54%
- viability, T/C [11]: 2.75%
- viability, T/C [12]: 2.39%
- viability, T/C [13]: 2.2%
- viability, T/C [14]: 2.54%
- viability, T/C (second compound 0.0316 µM, first compound 0.00316 µM): 24.9%
- viability, T/C (second compound 0.0316 µM, first compound 0.01 µM): 3.04%
- viability, T/C [15]: 2.2%
- viability, T/C [16]: 2.3%
- viability, T/C [17]: 2.25%
- viability, T/C [18]: 3.18%
- viability, T/C (second compound 0.1 µM, first compound 0.00316 µM): 20.2%
- viability, T/C (second compound 0.1 µM, first compound 0.01 µM): 2.99%
- viability, T/C [19]: 2.63%
- viability, T/C [20]: 1.97%
- viability, T/C [21]: 2.37%
- viability, T/C [22]: 2.09%
- viability, T/C (second compound 0.316 µM, first compound 0.00316 µM): 24.8%
- viability, T/C (second compound 0.316 µM, first compound 0.01 µM): 3.77%
- viability, T/C [23]: 2.05%
- viability, T/C [24]: 1.47%
- viability, T/C [25]: 2.4%
- viability, T/C [26]: 2.12%
- viability, T/C (second compound 1 µM, first compound 0.00316 µM): 21.4%
- viability, T/C (second compound 1 µM, first compound 0.01 µM): 4.48%
- viability, T/C [27]: 3.25%
- viability, T/C [28]: 2.34%
- viability, T/C [29]: 2.71%
- viability, T/C [30]: 2.67%

Compound: C[C@@H](NC(=O)c1ncnc(N)c1Cl)c1ncc(C(=O)Nc2cc(C(F)(F)F)c(Cl)cn2)s1 + C=CC(=O)N1CCN(c2nc(OCC3CCCN3C)nc3c(F)c(-c4nc(N)cc(C)c4C(F)(F)F)c(Cl)cc23)C(C)C1
- pIC50 [1]: < 5.00
- pIC50 [2]: 6.70
- pIC50 [3]: > 7.50
- pIC50 [4]: > 7.50
- pIC50 [5]: > 7.50
- pIC50 [6]: > 7.50
- viability, T/C [7]: 72.2%
- viability, T/C [8]: 79.4%
- viability, T/C [9]: 61.5%
- viability, T/C [10]: 63.1%
- viability, T/C (second compound 0.00316 µM, first compound 3.16 µM): 63.2%
- viability, T/C (second compound 0.00316 µM, first compound 10 µM): 59.6%
- viability, T/C [11]: 60.9%
- viability, T/C [12]: 53.3%
- viability, T/C [13]: 47.8%
- viability, T/C [14]: 44.7%
- viability, T/C (second compound 0.01 µM, first compound 3.16 µM): 45.8%
- viability, T/C (second compound 0.01 µM, first compound 10 µM): 52.4%
- viability, T/C [15]: 43.6%
- viability, T/C [16]: 49%
- viability, T/C [17]: 38.9%
- viability, T/C [18]: 38.6%
- viability, T/C (second compound 0.0316 µM, first compound 3.16 µM): 42%
- viability, T/C (second compound 0.0316 µM, first compound 10 µM): 40.4%
- viability, T/C [19]: 43.3%
- viability, T/C [20]: 46.5%
- viability, T/C [21]: 36.2%
- viability, T/C [22]: 42.2%
- viability, T/C (second compound 0.1 µM, first compound 3.16 µM): 45.9%
- viability, T/C (second compound 0.1 µM, first compound 10 µM): 39.1%
- viability, T/C [23]: 42.1%
- viability, T/C [24]: 37.3%
- viability, T/C [25]: 40.8%
- viability, T/C [26]: 40.6%
- viability, T/C (second compound 0.316 µM, first compound 3.16 µM): 42.7%
- viability, T/C (second compound 0.316 µM, first compound 10 µM): 41%
- viability, T/C [27]: 36.4%
- viability, T/C [28]: 44.4%
- viability, T/C [29]: 45.4%
- viability, T/C [30]: 42%
- viability, T/C (second compound 1 µM, first compound 3.16 µM): 43.6%
- viability, T/C (second compound 1 µM, first compound 10 µM): 40.5%

Compound: CCn1c(-c2cc(N3CCN(C)CC3)cnc2C(C)OC)c2c3cc(ccc31)-c1csc(n1)CC(NC(=O)C1CC1C)C(=O)N1CCCC(N1)C(=O)OCC(C)(C)C2 (stereo unspecified)
- viability, T/C (compound 0.000949 µM): 45.5% [middle of 8 runs]
- viability, T/C (compound 0.003 µM): 36.2% [middle of 8 runs]
- viability, T/C (compound 0.00949 µM): 32.6% [middle of 8 runs]
- viability, T/C (compound 0.03 µM): 29.9% [middle of 8 runs]
- viability, T/C (compound 0.0949 µM): 22.1% [middle of 8 runs]
- viability, T/C (compound 0.3 µM): 19.5% [middle of 8 runs]
- pIC50 (compound alone, run of 07/09/2024): > 9.02
